# Laboratory results taken from patent publication US10766927B2, “Peptides that stimulate subcutaneous adipogenesis” (THE REGENTS OF THE UNIVERSITY OF CALIFORNIA, priority 2012, dated 2020).
# Legend:
# [1] = test system: Rat skin; experiment: Rat dermal skin model of adipogenesis (injection into the dermis); format: in vivo; conditions: for adipogenic potential, In vivo Rat skin: ranked on a scale of 0-5 with 5 the highest possible score, injected into the dermis of aged rats
# Method: (§1) Examples of the adipogenic effects of RHAMM antagonists (peptide B (SEQ ID NO: 2), peptide P15-1 (SEQ ID NO. 1), and the antibody to peptide B) are summarized in Table 1. Peptide P15-1, peptide B, and a RHAMM antibody were assayed for their effects on pre-adipocyte stem cells in culture and when injected into the dermis of aged rats. Reagents were ranked on a scale of 0-5 with 5 representing the highest possible score and a completely filled in Harvey ball. “2D” refers to two-dimensional tissue culture.
# In FIGS. 5A and 5B, data are shown as a ratio of the area (“surface area”) of fat pads expressed as a ratio of experimental/control values.
# The 6-mer (KSEVSK; SEQ ID NO: 3) was tested for adipogenic effect in rat skin in vivo. The results of this testing are shown in the photographs in FIG. 10.
# [2] = test system: human Pre-adipocytes; experiment: Adipogenic potential in 2D human pre-adipocyte culture; format: cell-based; conditions: ranked on a scale of 0-5 with 5 the highest possible score; two-dimensional tissue culture
# Method: as §1
# [3] = test system: Pre-adipocytes (rat mesenchymal stem cells); experiment: Adipogenic potential in 2D rat pre-adipocyte culture; format: cell-based; conditions: ranked on a scale of 0-5 with 5 the highest possible score; two-dimensional tissue culture
# Method: as §1
# [4] = test system: bone marrow mesenchymal stem cells; experiment: Adipogenesis in culture, assay 1 or 2 not specified; format: cell-based; conditions: for adipogenic activity (in words): truncation fragments, FIGS. 7-9, 13; for activity compared to KSEVSK hexamer: FIG. 13, doses 1, 5, 25 μg, absorbance at 520 nm
# Text: The following assays were used to assess adipogenic activity of the peptides in the experiments described below in Example 2.
# (§2) Pre-adipocyte stem cells including bone marrow mesenchymal stem cells and fibroblasts including reticular and papillary dermal fibroblasts were propagated using standard tissue culture methods. Cells were trypsinized to remove the cells from the substratum. The trypsin was neutralized and cells were counted using a hemocytometer. Cells were resuspended at 30,000 cells/mL in expansion media. […] of cell suspension was plated per well of 24-well plate, with several wells left empty for blank well staining.
# (§3) Pre-adipocyte stem cells, bone marrow mesenchymal stem cells and fibroblasts such as dermal reticular and papillary fibroblasts were propagated using standard tissue culture methods. Cells were trypsinized to remove cells from the substratum, the trypsin was neutralized, and cells were counted using a hemocytometer. Cells were resuspended at 60,000 cells/ml in low glucose DMEM containing 10% calf serum. 1 mL of cell suspension per well was plated in a 24-well plate, with several wells left empty for blank well staining.
# [5] = test system: nude guinea pigs; experiment: Nude guinea pig model, injection in upper back and ear fat pad, H and E staining; format: in vivo; conditions: upper back and ear fat pad after injection; control collagen gel vehicle only
# Method: Peptide B (SEQ ID NO: 2) was also tested for its effect in nude guinea pigs since their skin structure resembles human facial skin. In particular, the skin of this animal model is more similar to human skin than is rat skin, in that it is hairless and the keratinocyte layer is thicker than in the rat model. […] Thus, peptide B was effective in promoting adipogenesis in this nude guinea pig model.
# [6] = test system: Pre-adipocyte stem cells, bone marrow mesenchymal stem cells and fibroblasts; experiment: Assay 2 to measure adipogenesis (dexamethasone/insulin/indomethacin induction, Oil Red O or BODIPY staining); format: cell-based; conditions: for Fold adipogenic induction vs. negative control / Specific activity (activity/1000 daltons): Assay 2; for adipogenic effect compared to KSEVSK 6-mer: assay 2 (FIG. 12)
# Method: The dexamethasone, insulin, and Oil Red 0 solutions were the same as described above for assay 1. Indomethacin Solution contained 10 mM indomethacin in methanol. The BODIPY 493/503 dye was used at a concentration of 4 μM.
# Adipogenesis Maintenance Media was prepared as described above.
# Adipogenesis Induction Media: To prepare 501 mL of Adipogenesis Induction Media, 50 μL of the 10 mM stock solution of dexamethasone, 500 μL of the 10 mg/ml stock solution of insulin, 5 ml of a 10 mM stock solution of indomethacin, and 5 mL of a 100× stock solution of penicillin and streptomycin were added to 490 mL of mesenchymal stem cell expansion media.
# as §3
# (§4) Cells were incubated overnight and had reached confluency at this point. Approximately 1.8 ml of media was removed from each well and replaced with 2 ml Adipogenesis Induction Media. For negative control wells, expansion medium only was used at this step and for subsequent media changes. For all media changes, media was replaced as gently as possible to avoid disturbing the monolayer.
# Cells were incubated for 3 days at 37° C., 5% CO2, media was replaced with fresh Adipogenesis Induction Media, and cells were incubated for an additional three days, at which point adipogenesis could be observed in about 5-10% of cells. Media was removed and replaced with 2 ml of maintenance medium containing either RHAMM antagonist peptides (experimental group) or insulin (concentration as in the induction medium used as positive control). Cells were incubated for 3 days at 37° C., 5% CO2.
# Media was removed and BODIPY or Oil Red O staining was performed as described above for assay 1.
# [7] = test system: Pre-adipocyte stem cells including bone marrow mesenchymal stem cells and fibroblasts; experiment: Assay 1 to measure adipogenesis (IBMX/dexamethasone initiation, Oil Red O or BODIPY staining); format: cell-based, rat; conditions: for Fold adipogenic induction vs. negative control / Specific activity (activity/1000 daltons): Assay 1; for adipogenic effect compared to KSEVSK 6-mer: assay 1 (FIG. 11)
# Method: Reagents: (1) 3-isobutyl-1-methylxanthine (IBMX) solution: 0.5M in DMSO; (2) Insulin solution: 10 mg/mL recombinant human insulin; (3) Dexamethasone solution in 10 mM in ethanol; (4) Oil Red 0 (0.36% in 60% isopropanol) or BODIPY dye (BODIPY 493/503 (4,4-difluoro-1,3,5,7-tetramethyl-4-bora-3a,4a-diaza-s-indacene-8-propionic acid, succinimidyl ester) from Invitrogen at 4-10 μM).
# Adipogenesis Initiation Media: mesenchymal stem cell expansion media/0.5 mM IBMX/1 μM dexamethasone. Mesenchymal stem cell expansion media is commercially available from Millipore. The IBMX Solution was diluted 1:1000 and the Dexamethasone Solution was diluted 1:10,000 in expansion media containing antibiotics and antimycotics. The prepared media was stored at 4° C.
# Adipogenesis Progression Media for positive control: mesenchymal stem cell expansion media/10 μg/mL insulin. The Insulin Solution was diluted 1:1000 in the expansion media and stored at 4° C.
# Experimental Adipogenesis Progression Media: mesenchymal stem cell expansion media/1-100 μg/mL RHAMM antagonist peptides.
# Adipogenesis Maintenance Media: mesenchymal stem cell expansion media containing antibiotics and antimycotics.
# Negative Control Media: DMEM/10% normal calf serum.
# as §2
# as §4, with “for 1-2 days until they” for “overnight and had”, “confluency.” for “confluency at this point.”, “mL” for “ml”, “Initiation” for “Induction”, “media” for “medium”
# Cells were incubated for 48 hours at 37° C., 5% CO2. 2 mL media was removed from each well, and replaced with 2 mL either positive control or experimental Adipogenesis Progression Media per well. Cells were again incubated for 48 hours at 37° C., 5% CO2. 2 mL of media was removed from each well and replaced with 2 mL Adipogenesis Maintenance Media per well. In addition, media was added to the empty wells reserved for blank well staining Cells were incubated for at least 48 hours at 37° C., 5% CO2. Media was replaced every 48-72 hours. Accumulation of intracellular lipid droplets continued for at least 5 days.
# For quantification of Oil Red 0 staining, media was removed and cells were washed twice with PBS, using care to gently add the PBS. 0.5 mL Oil Red 0 solution was added per well of 24-well plate, including to the wells lacking cells, but containing media. Cells were incubated for 15 minutes at room temperature. The staining solution was then removed and wells were washed three times with 1 mL of phosphate buffered saline (PBS). In some experiments, following removal of the last wash, stained plates were scanned or photographed.
# Adipogenesis was quantified using a spectrophotometer or fluorometer. 0.25 mL Dye Extraction Solution (isopropyl alcohol) was added per well, and the plate was set on an orbital shaker or platform rocker for 15-30 minutes. Extracted dye was transferred into a cuvette and absorbance was read in a spectrophotometer at visible range for oil red 0 or transferred to a 96-well plate and quantified in a plate reader.
# For quantification of BODIPY dye uptake, media was removed and cells were washed twice with PBS, using care to gently add the PBS. Cells were then fixed in 3% paraformaldehyde, washed in PBS then incubated for 1 hour in the dark with the BODIPY solution, prepared in PBS. […]
# [8] = test system: mesenchymal stem cell; experiment: Adipogenesis using a commercially available mesenchymal stem cell kit; format: cell-based
molecule,measurement,setting,value
KLKDENSQLKSEVSK [peptide B],fat accumulation in rat dermal skin model,[1]; 25-50 μg/injection site,induced significant fat accumulation
same,"fat pad surface area, experimental/control: animal group with best effect",[1]; FIGS. 5A and 5B,most effective in old females
same,"adipogenic potential, In vivo Rat skin",[1],5
same,"adipogenic potential, 2D human Pre-adipocytes",[2],5
same,"adipogenic potential, 2D rat Pre-adipocytes (rat mesenchymal stem cells)",[3],5
same,amount at which maximum adipogenic effect was obtained,"[4]; bone marrow mesenchymal stem cells, depending upon the screening assay used (FIGS. 3B, 3C, 4)",1 to 5 µg
same,subcutaneous fat deposition,[5],increase in subcutaneous fat deposition
same,Fold adipogenic induction vs. negative control,[6],3.1
same,Specific activity (activity/1000 daltons),[6],1.7 activity/1000 daltons
SQLKSEVSK [9mer],Fold adipogenic induction vs. negative control,[7],2.4
same,Specific activity (activity/1000 daltons),[7],2.1 activity/1000 daltons
same,adipogenic activity (in words),[4],found to be adipogenic
same,Fold adipogenic induction vs. negative control,[6],3.0
same,Specific activity (activity/1000 daltons),[6],2.6 activity/1000 daltons
STMMSRSHKTRSHHV [peptide P15-1],"adipogenic potential, In vivo Rat skin",[1],2
same,"adipogenic potential, 2D human Pre-adipocytes",[2],2
same,"adipogenic potential, 2D rat Pre-adipocytes (rat mesenchymal stem cells)",[3],2
LKSEVSK [7mer],Fold adipogenic induction vs. negative control,[7],2
same,Specific activity (activity/1000 daltons),[7],2.3 activity/1000 daltons
same,adipogenic activity (in words),[4],also found to be adipogenic
same,Fold adipogenic induction vs. negative control,[6],3.0
same,Specific activity (activity/1000 daltons),[6],3.4 activity/1000 daltons
ASEVSK,adipogenic effect compared to KSEVSK 6-mer,[7],reduced adipogenic effects
same,adipogenic effect compared to KSEVSK 6-mer,[6],reduced adipogenic effects
KLKDENS,adipogenic activity (in words),[4],Only the SQLKSEVSK (SEQ ID NO: 44) fragment was found to be adipogenic
KSEVS,activity compared to KSEVSK hexamer,[4],much less active
same,adipogenic activity (in words),[4],low level of adipogenic activity
SEVSK,activity compared to KSEVSK hexamer,[4],much less active
same,adipogenic activity (in words),[4],low level of adipogenic activity
STMMSRSHK,adipogenic activity (in words),[4],has adipogenic activity
KSEVSK [6mer],adipogenic effect in rat skin in vivo (fat pads),[1]; FIG. 10,"able to induce large fat pads, possibly larger than peptide B"
same,Fold adipogenic induction vs. negative control,[7],2.8
same,Specific activity (activity/1000 daltons),[7],3.7 activity/1000 daltons
same,adipogenic activity (in words),[4],also found to be adipogenic
same,Fold adipogenic induction vs. negative control,[6],4.2
same,Specific activity (activity/1000 daltons),[6],5.6 activity/1000 daltons
KSEVSA,adipogenic effect compared to KSEVSK 6-mer,[7],reduced adipogenic effects
same,adipogenic effect compared to KSEVSK 6-mer,[6],reduced adipogenic effects
RHAMM carboxy-terminal sequence: RHAMM carboxy-terminal sequence aa681-794 produced as a recombinant protein (protein) LDAFEAEKQALLNEHGATQEQLNKIRDSYAQLLGHQNLKQKIKHVVKLKDENSQLKSEVSKLRSQLVKRKQNELRLQGELDKALGIRHFDPSKAFCHASKENFTPLKEGNPNCC,promotion of adipogenesis,[8],promoted adipogenesis
